Laboratory results as given in US7462639B2, “Aminopyrazole derivatives” (Hoffmann-La Roche Inc., priority 2005, dated 2008).

How the values were obtained:
HCT 116 cells = assay: Viability assay in HCT 116 cells (CellTiter-Glo); type: cell-based; conditions: HCT 116 human colon carcinoma cells, 5 days incubation, ATP luminescence readout
Method: A viability assay was performed using the CellTiter-Glo® Luminescent Cell Viability Assay (see Promega Corporation's Technical Bulletin No. 288, pp. 1-11 [revised 2/04] which is hereby incorporated by reference in its entirety). This assay is a homogeneous method of determining the number of viable cells in culture based on quantitation of the ATP present, an indicator of metabolically active cells. The assay is designed for use with multiwell formats, making it ideal for automated high-throughput screening (HTS), cell proliferation and cytotoxicity assays. The homogeneous assay procedure involves adding a single reagent (containing luciferase, luciferan substrate, and buffer) directly to cells cultured in serum-supplemented medium. Cell washing, removal of medium and multiple pipetting steps are not required. The system detects as few as 15 cells/well in a 384-well format in 10 minutes after adding reagent and mixing.
The homogeneous “add-mix-measure” format results in cell lysis and generation of a luminescent signal proportional to the amount of ATP present. The amount of ATP is directly proportional to the number of cells present in culture. The above-referenced assay generates a “glow-type” luminescent signal, produced by the luciferase reaction, which has a half-life generally greater than five hours, depending on cell type and medium used. The extended half-life eliminates the need to use reagent injectors and provides flexibility for continuous or batch mode processing of multiple plates. The unique homogeneous format avoids errors that may be introduced by other ATP measurement methods that require multiple steps.
HCT 116 cells (human colon carcinoma, ATCC-No. CCl-247) were cultivated in RPMI 1640 medium with GlutaMAX™ I (cell culture media that contains L-Alanyl-L-Glutamine [a stabilized a form/source of L-Glutamine] from Invitrogen, Cat-No. 61870-010), 2.5% Fetal Calf Serum (FCS, Sigma Cat-No. F4135 (FBS)); 100 Units/ml penicillin/100 μg/ml streptomycin (=Pen/Strep from Invitrogen Cat. No. 15140). For the assay the cells were seeded in 384 well plates, 1000 cells per well, in the same medium. The next day the test compounds were added in various concentrations ranging from 30 μM to 0.0015 μM (10 concentrations, 1:3 diluted). After 5 days the viability assay was done according to the instructions of the manufacturer. In brief: the cell-plate was equilibrated to room temperature for approximately 30 minutes and then reagent (containing luciferase, luciferan substrate, and buffer) was added. The contents were carefully mixed for 15 minutes to induce cell lysis. After 45 minutes the luminescent signal was measured in Victor 2, (scanning multiwell spectrophotometer, Wallac).
Medium: RPMI 1640 with cell culture media containing L-Alanyl-L-Glutamine [GlutaMAX™ I (Invitrogen, Cat-No. 61870)], 5% FCS (Sigma Cat.-No. F4135), Pen/Strep (Invitrogen, Cat No. 15140).
HCT116 (ATCC-No. CCl-247): 1000 cells in 60 μl per well of 384 well plate (Greiner 781098, μClear-plate white)
After seeding incubate plates 24 h at 37° C., 5% CO2
2nd. Day: Induction (Treatment with Compounds, 10 Concentrations):
In order to achieve a final concentration of 30 μM as highest concentration […] of 10 mM compound stock solution were added directly to […] media. Then step d) of the dilution procedure described below, was followed. […]

Aurora A kinase = biological target: T1, Aurora A kinase (Homo sapiens, UniProt O14965); assay: IC50 determination for inhibitors of Aurora A (ELISA-type kinase assay); type: biochemical; conditions: GST-Histone H3 substrate, mutant Aurora A kinase, 30 μM ATP, 40 minutes, read-out: IC50 Aurora A kinase inhibition
T1 sequence (O14965 1-403): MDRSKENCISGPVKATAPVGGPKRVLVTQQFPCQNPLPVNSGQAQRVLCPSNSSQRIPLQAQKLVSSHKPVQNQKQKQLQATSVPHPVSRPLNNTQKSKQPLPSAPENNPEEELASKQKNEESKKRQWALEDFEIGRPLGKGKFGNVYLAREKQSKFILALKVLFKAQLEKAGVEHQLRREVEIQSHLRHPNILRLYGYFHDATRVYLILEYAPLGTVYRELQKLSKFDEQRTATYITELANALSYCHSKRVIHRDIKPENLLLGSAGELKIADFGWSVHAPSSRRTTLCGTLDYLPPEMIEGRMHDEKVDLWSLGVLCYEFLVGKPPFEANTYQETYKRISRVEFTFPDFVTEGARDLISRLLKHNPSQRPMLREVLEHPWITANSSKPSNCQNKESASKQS
Method: Aurora A is a serine threonine kinase involved in spindle assembly and chromosome segregation. The assay is a typically ELISA-type assay where substrate (GST-Histone H3) is coupled to the assay-plate and is phosphorylated by the kinase. Phosphorylation is detected by a mouse anti-Phosphopeptid mAb and an HRP-labeled anti-mouse pAb. The assay is validated for IC50-determination.
Kinase activities were measured by Enzyme-Linked Immunosorbent Assay (ELISA): Maxisorp 384-well plates (Nunc) were coated with recombinant fusion protein comprising residues 1-15 of HistoneH3 fused to the N-terminus of Glutathione-S-Transferase. Plates were then blocked with a solution of 1 mg/mL I-block (a highly purified form of casein, Tropix cat. no. T2015) in phosphate-buffered saline. Kinase reactions were carried out in the wells of the ELISA plate by combining an appropriate amount of mutant Aurora A kinase with test compound and 30 μM ATP. The reaction buffer was 10× Kinase Buffer (Cell Signaling cat. no. 9802) supplemented with 1 μg/mL I-block. Reactions were stopped after 40 minutes by addition of 25 mM EDTA. After washing, substrate phosphorylation was detected by addition of anti-phospho-Histone H3 (Ser 10) 6G3 mAb (Cell Signaling cat. no. 9706) and sheep anti-mouse pAb-HRP (Amersham cat# NA931V), followed by colorimetric development with TMB (3,3′,5,5′-tetramethylbenzidine from Kirkegaard & Perry Laboratories). After readout of the adsorbance, IC50 values were calculated using a non-linear curve fit (XLfit software (ID Business Solution Ltd., Guilford, Surrey, UK)).

Row | IC50 (HCT 116 cells; 120 h) [nM] | IC50 (Aurora A kinase) [nM] | SMILES | further results
1 | 311 | – | CCN1C(=O)C(C)(C)c2cc3[nH]c(-c4n[nH]cc4NC(C)=O)nc3cc21 [Example A-1, N-[3-(5-Ethyl-7,7-dimethyl-6-oxo-1,5,6,7-tetrahydro-imidazo[4,5-f]indol-2-yl)-1H-pyrazol-4-yl]-acetamide] | –
2 | – | 29 | CCN1C(=O)C(C)(C)c2cc3[nH]c(-c4n[nH]cc4NC(=O)C(F)(F)F)nc3cc21 [Example A-5, N-[3-(5-Ethyl-7,7-dimethyl-6-oxo-1,5,6,7-tetrahydro-imidazo[4,5-f]indol-2-yl)-1H-pyrazol-4-yl]-2,2,2-trifluoro-acetamide] | –
3 | 57 | – | CCN1C(=O)C(C)(C)c2cc3[nH]c(-c4n[nH]cc4NC(=O)c4cccnc4)nc3cc21 [Example B-3, N-[3-(5-Ethyl-7,7-dimethyl-6-oxo-1,5,6,7-tetrahydro-imidazo[4,5-f]indol-2-yl)-1H-pyrazol-4-yl]-nicotinamide] | –
4 | – | 2 | CCN1C(=O)C(C)(C)c2cc3[nH]c(-c4n[nH]cc4NC(=O)CC(C)C)nc3cc21 [Example B-20, N-[3-(5-Ethyl-7,7-dimethyl-6-oxo-1,5,6,7-tetrahydro-imidazo[4,5-f]indol-2-yl)-1H-pyrazol-4-yl]-3-methyl-butyramide] | –
5 | 99 | – | CCN1C(=O)C(C)(C)c2cc3[nH]c(-c4n[nH]cc4NC(=O)COC)nc3cc21 [Example B-22, N-[3-(5-Ethyl-7,7-dimethyl-6-oxo-1,5,6,7-tetrahydro-imidazo[4,5-f]indol-2-yl)-1H-pyrazol-4-yl]-2-methoxy-acetamide] | –
6 | – | 3 | CCN1C(=O)C(C)(C)c2cc3[nH]c(-c4n[nH]cc4NC(=O)c4cnccn4)nc3cc21 [Example C-11, Pyrazine-2-carboxylic acid[3-(5-ethyl-7,7-dimethyl-6-oxo-1,5,6,7-tetrahydro-imidazo[4,5-f]indol-2-yl)-1H-pyrazol-4-yl]-amide] | –
7 | – | – | CCN1C(=O)C(C)(C)c2cc3[nH]c(-c4n[nH]cc4NC(=O)c4ccc5c(c4)OCCO5)nc3cc21 [Example C-13, 2,3-Dihydro-benzo[1,4]dioxine-6-carboxylic acid[3-(5-ethyl-7,7-dimethyl-6-oxo-1,5,6,7-tetrahydro-imidazo[4,5-f]indol-2-yl)-1H-pyrazol-4-yl]-amide] | IC50 (HCT 116 cells): 63 nM
8 | – | 19 | CCN1C(=O)C(C)(C)c2cc3[nH]c(-c4n[nH]cc4NC(=O)OCc4ccccc4)nc3cc21 [Example E-5, [3-(5-Ethyl-7,7-dimethyl-6-oxo-1,5,6,7-tetrahydro-imidazo[4,5-f]indol-2-yl)-1H-pyrazol-4-yl]-carbamic acid benzyl ester] | –
9 | 378 | – | CCN1C(=O)C(C)(C)c2cc3[nH]c(-c4n[nH]cc4NC(=O)OC)nc3cc21 [Example E-6, [3-(5-Ethyl-7,7-dimethyl-6-oxo-1,5,6,7-tetrahydro-imidazo[4,5-f]indol-2-yl)-1H-pyrazol-4-yl]-carbamic acid methyl ester] | –
10 | – | 1 | CCN(CC)C(=O)Nc1c[nH]nc1-c1nc2cc3c(cc2[nH]1)C(C)(C)C(=O)N3CC [Example E-8, 1,1-Diethyl-3-[3-(5-ethyl-7,7-dimethyl-6-oxo-1,5,6,7-tetrahydro-imidazo[4,5-f]indol-2-yl)-1H-pyrazol-4-yl]-urea] | –
11 | 61 | – | CCN1C(=O)C(C)(C)c2cc3[nH]c(-c4n[nH]cc4NC(=O)N(C)C)nc3cc21 [Example E-10, 3-[3-(5-Ethyl-7,7-dimethyl-6-oxo-1,5,6,7-tetrahydro-imidazo[4,5-f]indol-2-yl)-1H-pyrazol-4-yl]-1,1-dimethyl-urea] | –
12 | 28 | – | CCN(CCN(C)C)C(=O)Nc1c[nH]nc1-c1nc2cc3c(cc2[nH]1)C(C)(C)C(=O)N3CC [Example F-4, 1-(2-Dimethylamino-ethyl)-1-ethyl-3-[3-(5-ethyl-7,7-dimethyl-6-oxo-1,5,6,7-tetrahydro-imidazo[4,5-f]indol-2-yl)-1H-pyrazol-4-yl]-urea] | –
13 | – | 11 | CCN1C(=O)C(C)(C)c2cc3[nH]c(-c4n[nH]cc4NC(=O)N4CCC(OC)CC4)nc3cc21 [Example F-6] | –
14 | – | 32 | CCN1C(=O)C(C)(C)c2cc3[nH]c(-c4n[nH]c(C)c4NCc4ccccc4)nc3cc21 [Example G-2, 2-(4-Benzylamino-5-methyl-1H-pyrazol-3-yl)-5-ethyl-7,7-dimethyl-5,7-dihydro-1H-imidazo[4,5-f]indol-6-one] | –
15 | – | 24 | CCN1C(=O)C(C)(C)c2cc3nc(-c4n[nH]cc4NS(C)(=O)=O)[nH]c3cc21 [Example H-2, N-[3-(5-Ethyl-7,7-dimethyl-6-oxo-3,5,6,7-tetrahydro-imidazo[4,5-f]indol-2-yl)-1H-pyrazol-4-yl]-methanesulfonamide] | –
